Experiments:
[1] = tested on: Leaf disks of transgenic Nicotiana tabacum lines IGPD-C, E, and G; experiment: Leaf disk growth (weight) on MS agar containing IGPD inhibitor, transgenic lines versus wild type; type: in vivo, Nicotiana tabacum cv. Xanthi-nc; details: 30 ppm inhibitor on MS agar, after three weeks
Description: Leaf disks of Nicotiana tabacum cv. Xanthi-nc were infected with A. tumefaciens CIB542 harboring pCIB200IGPD as described by Horsch et al, Science 227:1229 (1985). Kanamycin-resistant shoots from 15 independent leaf disks were transferred to rooting medium, then transplanted to soil and the resulting plants grown to maturity in the greenhouse. Seed from these plants were collected and germinated on MS agar medium containing kanamycin. Ten individual kanamycin resistant seedlings from each independent primary transformant were grown to maturity in the greenhouse, and their seed collected. These seeds were germinated on MS agar medium conta/ning kanamycin.
Plant lines that gave rise to exclusively kanamycin resistant seedlings were homozygous for the inserted gene and were subjected to further analysis. Leaf disks of each of the 15 independent transgenie lines were excised with a paper punch and placed onto MS agar containing 0 or 30 ppm of a specific IGPD inhibitor represented by formula (II), namely: [drawing 11] After three weeks, two sets of 10 disks from each line were weighed, and the results recorded. Transgenie lines designated IGPD-C, E, and G were approximately 3-fold more resistant to the inhibitor than wild type, non-transformed plants.

wheat germ IGPD = experiment: IGPD enzyme activity / inhibitor assay with purified wheat germ IGPD; type: biochemical
Procedure: Purified IGPD may be used in assays to discover novel inhibitors of the enzyme, which inhibitors potentially would function as commercially viable herbicides. Typically, the inhibitory effect of a chemical on IGPD is determined by the absorbance difference at 370 nm using an absorbance coefficient of 10,400, which signifies the production of IAP from IGP. See, Ames et al., J. Biol. Chem. 212:687-697 (1957). Inhibitor solutions in various concentrations, e.g. 1 mM, 100 μM, 10 μM, and 1 μM, are added to the reaction mixture prior to the initiation of the enzyme reaction. A representative reaction mixture contains 50 mM Bis-Tris-propane-HCl (pH 6.6), 100 mM 2-mercaptoethanol, 1 mM MnCl2, 1 mM IGP, and between 2 and 5 mU of IGPD. Once IGP is added, the reaction is rim at 30° C., and is stopped by the addition of perchlorie acid up to 10% volume of the reaction mixture. […] Five volumes of 5N NaOH are added to the solution, and after two minutes, enolized IA is measured spectroscopically. […]
IGPD activity was determined by measuring imidazoleacetol obtained by hydrolyzing IAP. […] Five volumes of 5N NaOH were added to the solution, and after 2 minutes, the concentration of enolized imidazoleacetol was determined from the absorbance at 370 nm using the absorbance coefficient of 10,400 (Ames and Mitchell, 1955). […]

Xanthi (untransformed) = experiment: Greenhouse plants treated with inhibitor, health visually scored; type: in vivo, Nicotiana tabacum cv. Xanthi-nc; set-up: key: 1 = severe stunting, severe chlorosis combined with necrosis; 2 = severe stunting, some interveinal chlorosis; 3 = moderate stunting, some interveinal chlorosis, pinnate leaves; 4 = moderate stunting, normal leaf morphology; 5 = healthy, with no symptoms
Procedure: (§1) To further evaluate resistance of the IGPD-overexpressing line IGPD-G, plants were grown in the greenhouse and treated with various concentrations of the inhibitor IRL 1803. After treatment, plants were photographed, and their health was visually scored.

[2] = tested on: IGPD-G (IGPD-overexpressing line); experiment: as above; type: in vivo, Nicotiana tabacum cv. Xanthi-nc; set-up: key: 1 = severe stunting, severe chlorosis combined with necrosis; 2 = severe stunting, some interveinal chlorosis; 3 = moderate stunting, some interveinal chlorosis, pinnate leaves; 4 = moderate stunting, normal leaf morphology; 5 = healthy, with no symptoms
Procedure: as §1

## O=P(O)(O)C1CCCC(O)(c2ncn[nH]2)C1 (stereo not shown)
[1]
  resistance to the inhibitor relative to wild type, non-transformed plants (leaf disk weight): approximately 3 fold

## [Mn+2] [manganese ions]
Wheat germ IGPD; manganese ions at a concentration of 0.5 mM
  enhancement of the activity of the enzyme: 7 fold
Wheat germ IGPD; read-out: Km value for Mn2+
  Km: ~110 µM

## O=P(O)(O)[C@@H]1CCC[C@](O)(c2ncn[nH]2)C1 [IRL 1803]
Xanthi (untransformed); 1000 ppm
  Visual Score after Treatment: 3
Xanthi (untransformed); 10000 ppm
  Visual Score after Treatment: 1
[2]; 1000 ppm
  Visual Score after Treatment: 4
[2]; 10000 ppm
  Visual Score after Treatment: 2

Source: patent publication US5541310A, “Herbicide resistant plants” (Ciba-Geigy Corporation, priority 1994, dated 1996)
